Tests used:
B. subtilis 168 [1] = assay: fitness (endpoint OD595 vs no drug) (fraction); higher = more growth
How it was run: (§1)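 Cultures at OD595 0.01 were dispensed into 384-well plates in TSB, LB Lennox or CY and incubated at 37 °C. Every 30 min for 14 h, OD595 was read and corrected by the first reading. Fitness is the optical density at entry into stationary phase relative to the robust mean of no-drug control wells, capped at 1.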

S. pneumoniae D39V [2] = assay: Bliss interaction score (quartile over a dose matrix) (fitness difference); higher = more antagonism (negative = synergy)
How it was run: (§2)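 Fitness is OD595 at stationary-phase entry relative to the plate's robust no-drug mean, capped at 1. Single-drug fitness was inferred from combinations. The Bliss score is observed minus product-expected fitness, summarised by quartiles over technical, biological and donor/recipient replicates.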

S. aureus DSM 20231 = assay: as above
How it was run: as §2

B. subtilis 168 [3] = assay: as above
How it was run: as §2

S. aureus Newman = assay: as above
How it was run: as §2

S. pneumoniae D39V [4] = assay: fitness (endpoint OD595 vs no drug) (fraction); higher = more growth
How it was run: as §1
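Wherever Bliss interaction score (quartile over a dose matrix) is given: first quartile when negative (synergy) and third quartile when positive (antagonism).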

Structure (SMILES): CN(C)C(=O)C(CCN1CCC(O)(c2ccc(Cl)cc2)CC1)(c1ccccc1)c1ccccc1 [Loperamide] + COc1cc(Cc2cnc(N)nc2N)cc(OC)c1OC [Trimethoprim]
- fitness (B. subtilis 168 [1]; first compound 25 µg/mL, partner 0.1 µg/mL, one replicate): 0.0203
- fitness (B. subtilis 168 [1]; first compound 25 µg/mL, partner 0.125 µg/mL, one replicate): 0.525
- fitness (B. subtilis 168 [1]; first compound 25 µg/mL, partner 0.2 µg/mL, one replicate): 0.0477
- fitness (B. subtilis 168 [1]; first compound 25 µg/mL, partner 0.4 µg/mL, one replicate): 0.0288
- fitness (B. subtilis 168 [1]; first compound 25 µg/mL, partner 1 µg/mL, one replicate): 0.0225
- fitness (B. subtilis 168 [1]; first compound 25 µg/mL, partner 2 µg/mL, one replicate): 0.0222
- fitness (B. subtilis 168 [1]; first compound 50 µg/mL, partner 0.1 µg/mL, one replicate): 0.0097
- fitness (B. subtilis 168 [1]; first compound 50 µg/mL, partner 0.125 µg/mL, one replicate): 0.0833
- fitness (B. subtilis 168 [1]; first compound 50 µg/mL, partner 0.2 µg/mL, one replicate): 0.0381
- fitness (B. subtilis 168 [1]; first compound 50 µg/mL, partner 0.25 µg/mL): 0.201
- fitness (B. subtilis 168 [1]; first compound 50 µg/mL, partner 0.4 µg/mL, one replicate): 0.0129
- fitness (B. subtilis 168 [1]; first compound 50 µg/mL, partner 0.5 µg/mL): 0.0275
- fitness (B. subtilis 168 [1]; first compound 50 µg/mL, partner 1 µg/mL, one replicate): 0.0319
- fitness (B. subtilis 168 [1]; first compound 50 µg/mL, partner 2 µg/mL, one replicate): 0.0248
- fitness (B. subtilis 168 [1]; first compound 100 µg/mL, partner 0.1 µg/mL, one replicate): 0.0141
- fitness (B. subtilis 168 [1]; first compound 100 µg/mL, partner 0.125 µg/mL, one replicate): 0.107
- fitness (B. subtilis 168 [1]; first compound 100 µg/mL, partner 0.2 µg/mL, one replicate): 0.0463
- fitness (B. subtilis 168 [1]; first compound 100 µg/mL, partner 0.25 µg/mL): 0.0658
- fitness (B. subtilis 168 [1]; first compound 100 µg/mL, partner 0.4 µg/mL, one replicate): 0.0259
- fitness (B. subtilis 168 [1]; first compound 100 µg/mL, partner 0.5 µg/mL): 0.0239
- fitness (B. subtilis 168 [1]; first compound 100 µg/mL, partner 1 µg/mL, one replicate): 0.031
- fitness (B. subtilis 168 [1]; first compound 100 µg/mL, partner 2 µg/mL, one replicate): 0.0361
- Bliss interaction score (S. pneumoniae D39V [2]): 0.274
- Bliss interaction score (S. aureus DSM 20231): -0.0416
- Bliss interaction score (B. subtilis 168 [3]): -0.102
- Bliss interaction score (S. aureus Newman): 0.0605

Structure (SMILES): CN(C)C(=O)C(CCN1CCC(O)(c2ccc(Cl)cc2)CC1)(c1ccccc1)c1ccccc1 [Loperamide] + Clc1ccc(COC(Cn2ccnc2)c2ccc(Cl)cc2Cl)c(Cl)c1 [Miconazole]
- fitness (S. pneumoniae D39V [4]; first compound 17.14 µg/mL, partner 1.25 µg/mL): 0.963
- fitness (S. pneumoniae D39V [4]; first compound 17.14 µg/mL, partner 2.5 µg/mL): 0.954
- fitness (S. pneumoniae D39V [4]; first compound 17.14 µg/mL, partner 5 µg/mL): 0.933
- fitness (S. pneumoniae D39V [4]; first compound 20 µg/mL, partner 1.073 µg/mL): ≥ 1
- fitness (S. pneumoniae D39V [4]; first compound 20 µg/mL, partner 2.145 µg/mL): ≥ 1
- fitness (S. pneumoniae D39V [4]; first compound 20 µg/mL, partner 4.29 µg/mL): 0.926
- fitness (S. pneumoniae D39V [4]; first compound 34.28 µg/mL, partner 1.25 µg/mL): 0.884
- fitness (S. pneumoniae D39V [4]; first compound 34.28 µg/mL, partner 2.5 µg/mL): 0.907
- fitness (S. pneumoniae D39V [4]; first compound 34.28 µg/mL, partner 5 µg/mL): 0.925
- fitness (S. pneumoniae D39V [4]; first compound 40 µg/mL, partner 1.073 µg/mL): ≥ 1
- fitness (S. pneumoniae D39V [4]; first compound 40 µg/mL, partner 2.145 µg/mL): 0.955
- fitness (S. pneumoniae D39V [4]; first compound 40 µg/mL, partner 4.29 µg/mL): 0.731
- fitness (S. pneumoniae D39V [4]; first compound 68.57 µg/mL, partner 1.25 µg/mL, one replicate): 0.857
- fitness (S. pneumoniae D39V [4]; first compound 68.57 µg/mL, partner 2.5 µg/mL, one replicate): 0.85
- fitness (S. pneumoniae D39V [4]; first compound 68.57 µg/mL, partner 5 µg/mL, one replicate): 0.923
- Bliss interaction score (S. pneumoniae D39V [2]): -0.0772
- Bliss interaction score (S. aureus DSM 20231): 0.0862
- Bliss interaction score (B. subtilis 168 [3]): -0.136
- Bliss interaction score (S. aureus Newman): -0.158

Structure (SMILES): CN(C)C(=O)C(CCN1CCC(O)(c2ccc(Cl)cc2)CC1)(c1ccccc1)c1ccccc1 [Loperamide] + Cn1nnc(-c2ccc(-c3ccc(N4C[C@H](CO)OC4=O)cc3F)cn2)n1 [Tedizolid]
- fitness (S. pneumoniae D39V [4]; first compound 17.14 µg/mL, partner 0.125 µg/mL): 0.933
- fitness (S. pneumoniae D39V [4]; first compound 17.14 µg/mL, partner 0.5 µg/mL): 0.532
- fitness (S. pneumoniae D39V [4]; first compound 20 µg/mL, partner 0.03125 µg/mL): 0.997
- fitness (S. pneumoniae D39V [4]; first compound 20 µg/mL, partner 0.0625 µg/mL): ≥ 1
- fitness (S. pneumoniae D39V [4]; first compound 20 µg/mL, partner 0.125 µg/mL): 0.908
- fitness (S. pneumoniae D39V [4]; first compound 34.28 µg/mL, partner 0.125 µg/mL): 0.961
- fitness (S. pneumoniae D39V [4]; first compound 34.28 µg/mL, partner 0.5 µg/mL): 0.529
- fitness (S. pneumoniae D39V [4]; first compound 40 µg/mL, partner 0.03125 µg/mL): ≥ 1
- fitness (S. pneumoniae D39V [4]; first compound 40 µg/mL, partner 0.0625 µg/mL): ≥ 1
- fitness (S. pneumoniae D39V [4]; first compound 40 µg/mL, partner 0.125 µg/mL): 0.94
- fitness (S. pneumoniae D39V [4]; first compound 68.57 µg/mL, partner 0.125 µg/mL, one replicate): 0.979
- fitness (S. pneumoniae D39V [4]; first compound 68.57 µg/mL, partner 0.25 µg/mL, one replicate): 0.963
- fitness (S. pneumoniae D39V [4]; first compound 68.57 µg/mL, partner 0.5 µg/mL, one replicate): 0.468
- fitness (S. pneumoniae D39V [4]; first compound 80 µg/mL, partner 0.03125 µg/mL): ≥ 1
- fitness (S. pneumoniae D39V [4]; first compound 80 µg/mL, partner 0.0625 µg/mL): ≥ 1
- fitness (S. pneumoniae D39V [4]; first compound 80 µg/mL, partner 0.125 µg/mL): 0.976
- Bliss interaction score (S. pneumoniae D39V [2]): 0.243
- Bliss interaction score (S. aureus DSM 20231): 0.198
- Bliss interaction score (B. subtilis 168 [3]): 0.06
- Bliss interaction score (S. aureus Newman): 0.102

Structure (SMILES): CN(C)C(=O)C(CCN1CCC(O)(c2ccc(Cl)cc2)CC1)(c1ccccc1)c1ccccc1 [Loperamide] + O=C1CN(/N=C/c2ccc([N+](=O)[O-])o2)C(=O)N1 [Nitrofurantoin]
- fitness (S. pneumoniae D39V [4]; first compound 17.14 µg/mL, partner 2 µg/mL): 0.906
- fitness (S. pneumoniae D39V [4]; first compound 17.14 µg/mL, partner 4 µg/mL): 0.924
- fitness (S. pneumoniae D39V [4]; first compound 17.14 µg/mL, partner 8 µg/mL): 0.856
- fitness (S. pneumoniae D39V [4]; first compound 20 µg/mL, partner 1.285 µg/mL): ≥ 1
- fitness (S. pneumoniae D39V [4]; first compound 20 µg/mL, partner 2.57 µg/mL): 0.98
- fitness (S. pneumoniae D39V [4]; first compound 20 µg/mL, partner 5.14 µg/mL, one replicate): ≥ 1
- fitness (S. pneumoniae D39V [4]; first compound 34.28 µg/mL, partner 2 µg/mL): 0.904
- fitness (S. pneumoniae D39V [4]; first compound 34.28 µg/mL, partner 4 µg/mL): 0.941
- fitness (S. pneumoniae D39V [4]; first compound 34.28 µg/mL, partner 8 µg/mL): 0.883
- fitness (S. pneumoniae D39V [4]; first compound 40 µg/mL, partner 1.285 µg/mL): ≥ 1
- fitness (S. pneumoniae D39V [4]; first compound 40 µg/mL, partner 2.57 µg/mL): 0.981
- fitness (S. pneumoniae D39V [4]; first compound 40 µg/mL, partner 5.14 µg/mL, one replicate): ≥ 1
- fitness (S. pneumoniae D39V [4]; first compound 68.57 µg/mL, partner 2 µg/mL, one replicate): 0.901
- fitness (S. pneumoniae D39V [4]; first compound 68.57 µg/mL, partner 4 µg/mL, one replicate): 0.914
- fitness (S. pneumoniae D39V [4]; first compound 68.57 µg/mL, partner 8 µg/mL, one replicate): 0.851
- fitness (S. pneumoniae D39V [4]; first compound 80 µg/mL, partner 1.285 µg/mL): 0.805
- fitness (S. pneumoniae D39V [4]; first compound 80 µg/mL, partner 2.57 µg/mL): 0.821
- fitness (S. pneumoniae D39V [4]; first compound 80 µg/mL, partner 5.14 µg/mL, one replicate): 0.806
- Bliss interaction score (S. pneumoniae D39V [2]): 0.106
- Bliss interaction score (S. aureus DSM 20231): 0.0206
- Bliss interaction score (B. subtilis 168 [3]): 0.0384
- Bliss interaction score (S. aureus Newman): 0.045

Structure (SMILES): CCN(CC)CCOC(=O)c1ccc(N)cc1 [Procaine] + CO[C@H]1/C=C/O[C@@]2(C)Oc3c(C)c(O)c4c(O)c(c(/C=N/N5CCN(C)CC5)c(O)c4c3C2=O)NC(=O)/C(C)=C\C=C\[C@H](C)[C@H](O)[C@@H](C)[C@@H](O)[C@@H](C)[C@H](OC(C)=O)[C@@H]1C [Rifampicin]
- fitness (S. pneumoniae D39V [4]; first compound 85.5 µg/mL, partner 0.025 µg/mL, one replicate): 0.903
- fitness (S. pneumoniae D39V [4]; first compound 85.5 µg/mL, partner 0.05 µg/mL): 0.927
- fitness (S. pneumoniae D39V [4]; first compound 85.5 µg/mL, partner 0.2 µg/mL): 0.102
- fitness (S. pneumoniae D39V [4]; first compound 171 µg/mL, partner 0.025 µg/mL, one replicate): 0.875
- fitness (S. pneumoniae D39V [4]; first compound 171 µg/mL, partner 0.05 µg/mL): 0.909
- fitness (S. pneumoniae D39V [4]; first compound 171 µg/mL, partner 0.2 µg/mL): 0.0616
- fitness (S. pneumoniae D39V [4]; first compound 342 µg/mL, partner 0.025 µg/mL, one replicate): 0.919
- fitness (S. pneumoniae D39V [4]; first compound 342 µg/mL, partner 0.05 µg/mL): 0.984
- fitness (S. pneumoniae D39V [4]; first compound 342 µg/mL, partner 0.2 µg/mL): 0.132
- Bliss interaction score (S. pneumoniae D39V [2]): 0.0704
- Bliss interaction score (S. aureus DSM 20231): -0.054
- Bliss interaction score (B. subtilis 168 [3]): -0.0578
- Bliss interaction score (S. aureus Newman): -0.0206
